The text below walks through data of paper PMC6426458 (Science Advances, 2019).

Test [1] addresses T1, RelMtb (truncated, residues 53 to 446) (Mycobacterium tuberculosis, UniProt P9WHG9).
T1 sequence (P9WHG9 1-394): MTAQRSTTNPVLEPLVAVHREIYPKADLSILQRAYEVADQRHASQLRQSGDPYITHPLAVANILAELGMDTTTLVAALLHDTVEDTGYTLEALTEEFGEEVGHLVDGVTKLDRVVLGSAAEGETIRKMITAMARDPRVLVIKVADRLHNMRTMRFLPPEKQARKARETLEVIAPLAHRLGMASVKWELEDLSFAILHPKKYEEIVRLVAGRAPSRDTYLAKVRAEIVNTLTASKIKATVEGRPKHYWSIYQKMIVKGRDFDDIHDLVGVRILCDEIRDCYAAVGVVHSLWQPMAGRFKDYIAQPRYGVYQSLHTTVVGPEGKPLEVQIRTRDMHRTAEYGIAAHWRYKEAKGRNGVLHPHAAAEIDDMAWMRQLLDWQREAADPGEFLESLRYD
Briefly: RelMtb enzymatic fluorescence polarization. Type of test: biochemical.

Test [2] deals with WT Mtb H37Rv. In kind it is cell-based, Mycobacterium tuberculosis.
Test [3] relates to Δrel (H37Rv deficient in Rv2583c/relMtb). Type of test: cell-based, Mycobacterium tuberculosis. The conditions noted are these: nutrient-rich broth.
In test [4] the test system is rel Comp (relMtb-complemented strain). Type of test: cell-based, Mycobacterium tuberculosis.
The test system of test [5] is WT H37Rv. Also noted: species or system Mycobacterium tuberculosis. To be noted: in vivo.
Test [6] deals with Δrel. Also noted: species or system Mycobacterium tuberculosis. To be noted: in vivo.
The test system of test [7] is rel Comp. Also noted: species or system Mycobacterium tuberculosis. The conditions noted are these: in vivo.
Test [8] has as its system nutrient-starved empty vector control (CDC1551). Type of test: cell-based, Mycobacterium tuberculosis. The conditions noted are these: INH 15.36 μg/ml, 7 days of exposure.
The test system of test [9] is Mtb following exposure to NS. The conditions noted are these: cited from earlier work.
Test [10] deals with relMtb-deficient Mtb. To be noted: nutrient-rich broth; cited from earlier work.

Compound `Nc1nc2c(ncn2[C@@H]2O[C@H](COP(=O)(O)OP(=O)(O)OP(=O)(O)O)C[C@H]2O)c(=O)[nH]1` [3′-dGTP] showed an IC50 in test [1] of 4 mM.

As to `Nc1ncnc2c1ncn2[C@@H]1O[C@H](COP(=O)(O)CP(=O)(O)OP(=O)(O)O)[C@@H](O)[C@H]1O` [AMPCPP, α,β-methylene analogue of ATP], in test [1], the IC50 was determined as 6.2 mM.

`Nc1nc2c(ncn2[C@@H]2O[C@H](COP(=O)(O)OP(=O)(O)OP(=O)(O)OP(=O)(O)OC[C@H]3O[C@@H](n4cnc5c(N)ncnc54)[C@H](O)[C@@H]3O)[C@@H](O)[C@H]2O)c(=O)[nH]1` [AP4G] yielded an IC50 in test [1] of 1.8 mM.

As to `NNC(=O)c1ccncc1` [INH, isoniazid], the “MBC of INH (concentration required to kill 99%)” value in [2], in [3] and in [4] (nutrient-rich broth) was 0.06 µg/mL each time. For the same compound, the “fold decrease of MBC of INH” value in test [2] was determined as 16 fold; in test [4] (7 days of NS, in the presence of 4 μM X9) it was 16 fold. Further, the “fold increase of MBC of INH” value in test [2] and in test [4] (7 days of NS versus nutrient-rich broth) was 512 fold throughout. In test [5], the “reduction of lung bacillary burden relative to the start of treatment” value is recorded as 0.11 log10. The “bacilli killed in the lungs during 2 weeks of treatment” value in [6] was 2.03 log10. In addition, the “reduction of lung bacterial load” value in test [7] came to 0.48 log10. Moreover, the “mean reduction of bacterial density (CFU/ml)” value in [8] stood at 1.43 log10 CFU. For the same compound, the “fold increase in the MBC of INH” value in test [9] is recorded as > 100 fold. Moreover, the “MIC against relMtb-deficient Mtb compared with the WT strain” value in test [10] is “the same as that against the WT strain”.

Regarding `CO[C@H]1/C=C/O[C@@]2(C)Oc3c(C)c(O)c4c(O)c(c(/C=N/N5CCN(C)CC5)c(O)c4c3C2=O)NC(=O)/C(C)=C\C=C\[C@H](C)[C@H](O)[C@@H](C)[C@@H](O)[C@@H](C)[C@H](OC(C)=O)[C@@H]1C` [rifampin], in test [10], the “MIC against relMtb-deficient Mtb compared with the WT strain” value is listed as “the same as that against the WT strain”.

In general, IC50 refers to the point on the concentration scale where inhibition reaches its midpoint. Read a high IC50 as weaker potency in that assay.
